Experiment [1] has as its system rat uterine decidualization. As to the kind of experiment: Rat decidualization assay. It is filed as in vivo. The note with it: po, read-out: ED50 in the rat decidual assay. The method, then: B. Progestational and Antiprogestational Activity in Mature Ovariectomized Rats (Rat Decidualization Assay)
This assay is used to evaluate the effect of progestins and antiprogestins on rat uterine decidualization and compare the relative potencies of various test compounds.
Test compounds are dissolved in 100% ethanol and mixed with corn oil (vehicle). Stock solutions of the test compounds in oil (Mazola™) are then prepared by heating (˜80° C.) the mixture to evaporate ethanol. Test compounds are subsequently diluted with 100% corn oil or 10% ethanol in corn oil prior to the treatment of animals. No difference in decidual response is found when these two vehicles are compared. […]
Approximately 24 hr after the third injection, decidualization is induced in one of the uterine horns of anesthetized rats by scratching the antimesometrial luminal epithelium with a blunt 21 G needle. […] Approximately 24 hr following the final treatment, rats are sacrificed by […] and bodyweight measured. […]
In agonist mode, the increase in weight of the decidualized uterine horn is calculated by D-horn/C-horn and logarithmic transformation is used to maximize normality and homogeneity of variance. […] EC50 is calculated from the transformed value. […] IC50 is calculated from the retransformed value. […]

Another experiment concerns menses induction. As to the kind of experiment: Cynomolgus monkey menses induction assay. Type of experiment: in vivo. The note with it: 5 mg/kg po. The method, then: C. Cynomolgus Monkey […] Induction 1. Experimental Design The effects of administered compound(s) in either a single dose or a dose-response paradigm versus an appropriate control (vehicle alone) are determined. When a compound is tested at a single dose, a group of four animals will be used for the dose. In the dose response study, each experiment will involve up to 5 groups of animals (a control group and 4 groups of animals treated with varying doses of the compound). Experimental groups will contain 3-4 animals/group, since this sample size is commonly used in the literature and has been found appropriate based on our own experience. The animals are treated with test compounds once or twice daily for 4 days in the mid-luteal phase of the menstrual cycle to assess the efficacy of the compounds on the reproductive parameters menstruation. 2. Procedures Initially, animals are characterized in terms of their reproductive cyclicity by observing time of menstruation. Only those animals with two consecutive normal cycles are used to evaluate test compounds. […] will be determined by daily gross examination for vaginal bleeding. In each experiment, animals will be treated once or twice daily IV, IM, SC or PO with the test compound. Appropriate vehicles will be determined for each route of administration and will be specified through protocol amendments. […]

For orientation: ED50 means the dose that gives a 50% effect, or the effect in half of the subjects.

Take `Cn1c(C#N)ccc1-c1cc(F)c2c(c1)C(C)(C)C(=O)N2` [5-(7-fluoro-3,3-dimethyl-2-oxo-2,3-dihydro-1H-indol-5-yl)-1-methyl-1H-pyrrole-2-carbonitrile]: the ED50 in experiment [1] was 0.1 mg/kg. In the experiment with menses induction, the “induction of early onset of menses” value was 4 out of 5.
